Test results: patent US20250214951A1, “3-PHENYLISOXAZOLE DERIVATIVE, AND PHARMACEUTICAL COMPOSITION FOR PREVENTING OR TREATING EYE DISEASE, CONTAINING SAME AS ACTIVE INGREDIENT” (VASTHERA CO., LTD., priority 2022, published 2025)

Assays:
Assay type in all cases: cell-based, human
[1] = tested on: LC3-II (autophagy flux); assay: Autophagy flux in ARPE-19 with or without bafilomycin A1; conditions: 10, 25, 50 μM, 12 h, bafilomycin A1 2 nM 4 h, FIG. 7
Protocol: Autophagy flux was measured by comparing the degree of change in LC3-II protein formation by treatment with example 17 compound of the present invention in the presence and absence of bafilomycin A1 (Abcam, Cambridge, United Kingdom) by Western blotting (Seranova E. et al. Autophagy: Methods and Protocols, Methods in Molecular Biology, vol. 1880, pp 389-428, 2019, https://doi.org/10.1007/978-1-4939-8873-0_26).
The autophagy flux measurement in this experiment used saturating concentrations of bafilomycin A1, known as an autophagy inhibitor. […] Therefore, the effect of the example compound of the present invention on autophagy flux can be determined by examining the level of LC3-II following treatment with the example compound of the present invention in the presence or absence of saturating concentrations of bafilomycin A1.
Specifically, in this experiment, ARPE-19 cell lines were seeded in 6-well plates at a concentration of 1×10^5 cells/well and cultured for 24 hours. […] The LC3-II level was measured by the Western immunoblotting method using a specific anti-LC3-II antibody (Cell Signaling Technology, MA, USA). Meanwhile, after treating with example 17 compound in the same manner as above under the condition of treating with bafilomycin A1 at a concentration of 2 nM for 4 hours, the amount of LC3-II was measured by the Western immunoblotting method. […]

[2] = tested on: NF-κB (p65); assay: Inhibition of blue light-induced NF-κB activation (p65 Western immunoblotting); conditions: A2E and blue light; 10 and 25 μM; FIG. 4
Source text: When cells are stimulated by external pathogenic molecules (PAMPs), NF-κB dimers (p50-p65 dimers) are separated from IκB and activated. The separated NF-κB dimers pass through the nuclear membrane and enter the nucleus, where they bind to DNA and activate gene transcription, indicating the activation of NF-κB. Therefore, the inhibitory effect of the compound of the present invention on NF-κB activation can be evaluated by measuring changes in the cytoplasmic or nuclear levels of p65. The experiment was conducted as follows.
ARPE-19 cells were seeded in 6-well plates at a concentration of 2×10^4 cells/well and cultured for 24 hours. In order to induce A2E accumulation in the ARPE-19 cell line, cells were treated with A2E three times at a concentration of 25 μM at 48-hour intervals. 24 hours after the final A2E treatment, cells were treated with compound 17 of the present invention twice at concentrations of 10 and 25 μM at 24-hour intervals, respectively. […] The level of p65 was measured by Western immunoblotting using anti-p65 antibody (Cell Signaling Technology, MA, USA). The cytoplasmic and nuclear fractions were measured by Western immunoblotting in the same manner as above using antibodies against α-tubulin (Cell Signaling Technology) and histone H3 (Abcam, Cambridge, UK) as internal controls, respectively.

[3] = tested on: A2E-BDP in ARPE-19 cells; assay: Removal of A2E-BDP by concentration, fluorescence and phase contrast microscopy
Protocol: ARPE-19 cell line was dispensed into a 24-well plate at a concentration of 4×10^4 cells/well and cultured for 24 hours. In order to induce A2E-BDP accumulation in ARPE-19 cell line, the cells were treated with […] of 10 μM for 24 hours. The A2E-BDP-containing ARPE-19 cells were treated with compound 17 (10, 25, 50 μM) for 24 hours. The level of A2E-BDP in each cell was measured as a fluorescence image at 510 nm using a Nikon Eclipse Ti—U fluorescence microscope (Tokyo, Japan). In addition, the change in cell number according to compound treatment was observed using a general phase contrast microscope, and the results are shown in FIG. 1. Meanwhile, lutein was used as a control substance.

[4] = tested on: A2E accumulated in ARPE-19 cells; assay: Removal of intracellular A2E measured by HPLC/LC-MS; conditions: ARPE-19 loaded with 50 μM A2E 48 h; 10, 25, 50 μM, 24 h; FIG. 2
Source text: In Table 1 and FIG. 1, in order to measure the reduction of intracellular A2E by compounds, A2E-fluorescent substance (A2E-BDP) that is easy to observe fluorescence was used. In previous research reports, A2E-BDP is known to have the same intracellular dynamics and characteristics as A2E, but since A2E is a substance that actually exists in a living body, the quantitative change in intracellular A2E was directly measured using the HPLC method as follows.
ARPE-19 cell lines were dispensed into 6-well plates at a concentration of 4×10^3 cells/well and cultured for 24 hours. ARPE-19 cell lines were treated with A2E at a concentration of 50 μM for 48 hours to accumulate A2E intracellularly. To evaluate the A2E removal ability, ARPE-19 cells containing A2E were treated with compound 17 of the present invention (10, 25, 50 μM) for 24 hours. Thereafter, ARPE-19 cells were washed with phosphate-buffered saline (PBS), and cell lysis buffer containing a protease inhibitor was added to prepare a cell lysate. Chloroform and methanol (2:1, vol/vol) were added to the sample obtained above, shaken to extract A2E, and then centrifuged at 10,000 g for 10 minutes. […] LC-MS (Shimadzu LC-MS 2010EV) analysis was performed using a C18 column ([…]) with acetonitrile and 0.1% formic acid (gradient, 0-100%, 0-10 min; flow rate 1.0 ml/min; monitored at 503 nm). […]

SMILES: C=CCOCc1cc(-c2cc(CC=C)ccc2OC)no1 [Example 17, 3-(5-allyl-2-methoxyphenyl)-5-((allyloxy)methyl)isoxazole]
- autophagy flux (difference in LC3-II with/without bafilomycin A1) [1]: significantly increases autophagy flux
- activation of NF-κB (movement of p65 into the nucleus) [2]: activation of NF-κB was inhibited
- cytotoxicity against ARPE-19 cells (cell number, phase contrast microscope) ([3]; 10, 25, 50 μM, 24 h): no cytotoxicity
- A2E-BDP fluorescence intensity (fluorescence microscope) ([3]; ARPE-19 with A2E-BDP, 10, 25, 50 μM, 24 h, FIG. 1): a decrease in fluorescence intensity was observed in a concentration-dependent manner
- A2E-BDP removal ability compared with lutein ([3]; FIG. 1): better A2E-BDP removal ability than lutein
- amount of accumulated A2E (HPLC) [4]: significantly reduced in a concentration-dependent manner
